From patent US20120065265A1, “ALPHA-2-DELTA LIGANDS FOR NON-RESTORATIVE SLEEP” (Pfizer Inc., priority 2006, published 2012)

Tested on: subjects with non-restorative sleep (NRS)
Assay: Randomized, double-blind, placebo- and active-controlled 4-way crossover study in an NRS population: efficacy
Assay type: in vivo, human
Conditions: for RSQ-W Total Score, comparison with placebo: one-sided alpha 0.05; for RSQ-W Total Score, LS Mean (primary endpoint): po, 336 h
Method: STUDY DESIGN. […] Subjects were subsequently crossed over 3 times to receive the remaining treatments, each for 2 weeks followed by a 1—week washout period. […] Each treatment was administered at least 2 hours after a meal. DIAGNOSIS AND MAIN CRITERIA FOR INCLUSION. Subjects selected for the study were male and/or nonpregnant, nonlactating females between the ages of 18-64 years, inclusive, who regularly (≧3 times/week) awoke un-restored or un-refreshed for at least the previous 3 months, causing significant distress or impairment in social, occupational, or other important areas of functioning during the daytime.
EFFICACY & SAFETY EVALUATIONS. The primary endpoint in this study was the Restorative Sleep Questionnaire—Weekly (RSQ-W) Total Score at the end of each 2-week treatment period. The RSQ-W, below, is a patient-reported outcome measure of morning refreshment over the past week in which larger values of the total score correspond to greater refreshment. All remaining efficacy/outcomes endpoints were considered secondary. Safety data, including adverse event information, clinical laboratory values, physical examination, vital signs, and electrocardiograms (ECGs) were collected during the study.
STATISTICAL METHODS. The Full Analysis Set was used in the analyses of all efficacy/outcome endpoints. […] The Per-Protocol Analysis Set was used for sensitivity analyses of certain efficacy/outcome endpoints as appropriate. […] Protocol deviations included the major inclusion/exclusion criteria assessed prior to randomization and major protocol deviations or violations assessed after randomization. […] The Safety Analysis Set was used in the analyses of the safety data and consisted of all randomized subjects who took any study medication.
Each comparison was done at the nominal alpha=0.05 level (one-sided), recognizing that the probability of committing at least one Type I error could be greater than 0.05 but no more than 0.15.
MODEL-BASED SUMMARY. The primary endpoint in this study was the RSQ-W Total Score at the end of each 2-week treatment period. This endpoint was analyzed using a linear model including sequence, period, and treatment as fixed factors, and subject within sequence and within-subject error as random factors. First-order carryover effects were explored and tested at the 10% nominal level of significance. Pair-wise comparisons were made based on the final linear model. The point estimates and 90% confidence intervals (Cis) for the placebo-adjusted treatment effects were constructed using the least squares (LS) means and appropriate standard errors.
DESCRIPTIVE SUMMARY. For each item and Total Score of the RSQ-W, descriptive statistics were provided by treatment and visit.
For secondary/exploratory purposes, certain secondary efficacy endpoints were analyzed with model-based statistical procedures. […] All comparisons are considered secondary/exploratory, and each was done at the nominal alpha=0.05 level (one-sided). No multiple comparison adjustment was made. All secondary efficacy endpoints were summarized descriptively. For secondary/exploratory purposes, appropriate model-based statistical procedures similar to those for the primary endpoint were used to analyze the following scales and subscales: • Restorative Sleep Questionnaire—Daily (RSQ-D, below): weekly averages of Total Score; • Daytime Consequences of Sleep Questionnaire (DCSQ): Total Score; • Multidimensional Assessment of Fatigue (MAF): Global Fatigue Index, Impact Subscale; • Subjective Sleep Questionnaire (SSQ): Sleep Quality; • Sheehan Disability Scale (SDS): Total Score; • SF-36v2: Mental Component Summary, Physical Component Summary, Vitality Subscale; • Clinical Global Impression of Change (CGIC): Status Score; and • Patient Global Impression of Change (PGIC): Status Score.

[1] = COMPOUND A doses (25 mg and 50 mg)

C[C@H]1CC(CN)(CC(=O)O)C[C@@H]1C [COMPOUND A, (3S,4S)-(1-aminomethyl-3,4-dimethyl-cyclopentyl)-acetic acid]
RSQ-D Total Score at Week 2 (COMPOUND A 25 mg): 61.5
RSQ-W Total Score, comparison with placebo (COMPOUND A 25 mg): statistically significantly different from placebo
Evening Functioning Scale (COMPOUND A dose groups, similar level of functioning as with zolpidem): better functioning than while taking placebo
MAF Impact Subscale score at Week 2, comparison with placebo [1]: not statistically significantly different from placebo
RSQ-D Total Score at Week 2, comparison with placebo [1]: no statistically significant differences from placebo
RSQ-W Total Score, LS Mean (primary endpoint) (25 mg): 63.6
RSQ-W Total Score, LS Mean (primary endpoint) (50 mg): 62.5
Treatment effect relative to placebo on the primary endpoint, the RSQ-W (conclusion) (subjects with non-restorative sleep, no dose stated): positive treatment effect relative to placebo

Cc1ccc(-c2nc3ccc(C)cn3c2CC(=O)N(C)C)cc1 [zolpidem, reference compound]
RSQ-W Total Score, comparison with placebo (zolpidem 10 mg): not statistically significantly different from placebo
